# Read-outs that look alike come from different tables or passages of the source.
# Tests used:
# Assay type in all cases: biochemical
# PRK2 = PRK2 (Homo sapiens, UniProt Q16513); experiment: Kinase profiling PRK2; settings: for remaining activity at 100 µM: read-out: residual kinase activity, PRK2
# Source text: (§1) Any value less that 25 is considered to be highly significant inhibition.
# VEG-FR = experiment: Kinase profiling VEG-FR
# Source text: as §1
# SmMLCK = SmMLCK (Homo sapiens, UniProt Q15746); experiment: Kinase profiling SmMLCK; settings: for remaining activity at 100 µM: read-out: residual kinase activity, SmMLCK
# SmMLCK, sequence (Q15746 923-1914): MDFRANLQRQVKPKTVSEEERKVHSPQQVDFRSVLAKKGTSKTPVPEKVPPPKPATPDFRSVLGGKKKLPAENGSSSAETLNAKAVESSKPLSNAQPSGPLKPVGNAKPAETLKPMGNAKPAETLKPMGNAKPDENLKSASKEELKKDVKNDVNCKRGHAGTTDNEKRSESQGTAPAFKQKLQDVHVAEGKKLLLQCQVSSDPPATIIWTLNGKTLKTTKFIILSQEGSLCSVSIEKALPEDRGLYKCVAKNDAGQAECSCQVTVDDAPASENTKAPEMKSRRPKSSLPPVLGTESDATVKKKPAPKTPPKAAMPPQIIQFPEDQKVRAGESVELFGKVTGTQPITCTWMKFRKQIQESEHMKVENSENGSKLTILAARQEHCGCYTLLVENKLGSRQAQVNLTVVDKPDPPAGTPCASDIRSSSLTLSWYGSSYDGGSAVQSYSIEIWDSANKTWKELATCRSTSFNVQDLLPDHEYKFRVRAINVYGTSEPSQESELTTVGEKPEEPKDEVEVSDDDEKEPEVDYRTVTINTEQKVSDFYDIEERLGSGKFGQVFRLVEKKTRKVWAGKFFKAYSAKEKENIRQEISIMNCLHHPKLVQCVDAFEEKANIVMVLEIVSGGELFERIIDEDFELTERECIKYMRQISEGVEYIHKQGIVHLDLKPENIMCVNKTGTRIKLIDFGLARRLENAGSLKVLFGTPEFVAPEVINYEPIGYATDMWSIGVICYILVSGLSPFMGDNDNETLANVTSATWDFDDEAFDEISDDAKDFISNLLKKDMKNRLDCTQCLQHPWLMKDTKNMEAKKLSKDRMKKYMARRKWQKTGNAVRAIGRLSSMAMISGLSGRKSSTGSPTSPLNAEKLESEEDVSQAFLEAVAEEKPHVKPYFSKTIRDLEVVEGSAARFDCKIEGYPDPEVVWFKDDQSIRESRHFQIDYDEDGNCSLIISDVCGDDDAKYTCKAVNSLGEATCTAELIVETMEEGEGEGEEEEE
# IRAK4 = target: T1, IRAK4 (Homo sapiens, UniProt Q9NWZ3); experiment: Kinase profiling IRAK4; settings: for remaining activity at 100 µM: read-out: residual kinase activity, IRAK4
# T1 sequence (Q9NWZ3 1-460): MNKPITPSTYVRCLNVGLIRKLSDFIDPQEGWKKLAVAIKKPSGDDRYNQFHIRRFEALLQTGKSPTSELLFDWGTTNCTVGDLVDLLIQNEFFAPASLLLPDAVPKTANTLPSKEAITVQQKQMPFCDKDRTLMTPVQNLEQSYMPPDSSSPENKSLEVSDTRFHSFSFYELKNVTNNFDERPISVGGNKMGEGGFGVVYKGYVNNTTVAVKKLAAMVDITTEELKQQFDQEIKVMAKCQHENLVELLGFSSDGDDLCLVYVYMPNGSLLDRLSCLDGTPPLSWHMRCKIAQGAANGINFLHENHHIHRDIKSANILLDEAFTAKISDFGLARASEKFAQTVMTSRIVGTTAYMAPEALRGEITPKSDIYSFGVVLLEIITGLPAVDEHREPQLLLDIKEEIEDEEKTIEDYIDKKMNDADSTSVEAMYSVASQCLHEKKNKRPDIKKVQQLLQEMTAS
# Source text: as §1
# RIPK2 = RIPK2 (Homo sapiens, UniProt O43353); experiment: Kinase profiling RIPK2; settings: for remaining activity at 100 µM: read-out: residual kinase activity, RIPK2
# Source text: as §1
# HIPK2 = HIPK2 (Homo sapiens, UniProt Q9H2X6); experiment: Kinase profiling HIPK2; settings: for remaining activity at 100 µM: read-out: residual kinase activity, HIPK2
# HIPK2, sequence (Q9H2X6 whole entry, species assumed): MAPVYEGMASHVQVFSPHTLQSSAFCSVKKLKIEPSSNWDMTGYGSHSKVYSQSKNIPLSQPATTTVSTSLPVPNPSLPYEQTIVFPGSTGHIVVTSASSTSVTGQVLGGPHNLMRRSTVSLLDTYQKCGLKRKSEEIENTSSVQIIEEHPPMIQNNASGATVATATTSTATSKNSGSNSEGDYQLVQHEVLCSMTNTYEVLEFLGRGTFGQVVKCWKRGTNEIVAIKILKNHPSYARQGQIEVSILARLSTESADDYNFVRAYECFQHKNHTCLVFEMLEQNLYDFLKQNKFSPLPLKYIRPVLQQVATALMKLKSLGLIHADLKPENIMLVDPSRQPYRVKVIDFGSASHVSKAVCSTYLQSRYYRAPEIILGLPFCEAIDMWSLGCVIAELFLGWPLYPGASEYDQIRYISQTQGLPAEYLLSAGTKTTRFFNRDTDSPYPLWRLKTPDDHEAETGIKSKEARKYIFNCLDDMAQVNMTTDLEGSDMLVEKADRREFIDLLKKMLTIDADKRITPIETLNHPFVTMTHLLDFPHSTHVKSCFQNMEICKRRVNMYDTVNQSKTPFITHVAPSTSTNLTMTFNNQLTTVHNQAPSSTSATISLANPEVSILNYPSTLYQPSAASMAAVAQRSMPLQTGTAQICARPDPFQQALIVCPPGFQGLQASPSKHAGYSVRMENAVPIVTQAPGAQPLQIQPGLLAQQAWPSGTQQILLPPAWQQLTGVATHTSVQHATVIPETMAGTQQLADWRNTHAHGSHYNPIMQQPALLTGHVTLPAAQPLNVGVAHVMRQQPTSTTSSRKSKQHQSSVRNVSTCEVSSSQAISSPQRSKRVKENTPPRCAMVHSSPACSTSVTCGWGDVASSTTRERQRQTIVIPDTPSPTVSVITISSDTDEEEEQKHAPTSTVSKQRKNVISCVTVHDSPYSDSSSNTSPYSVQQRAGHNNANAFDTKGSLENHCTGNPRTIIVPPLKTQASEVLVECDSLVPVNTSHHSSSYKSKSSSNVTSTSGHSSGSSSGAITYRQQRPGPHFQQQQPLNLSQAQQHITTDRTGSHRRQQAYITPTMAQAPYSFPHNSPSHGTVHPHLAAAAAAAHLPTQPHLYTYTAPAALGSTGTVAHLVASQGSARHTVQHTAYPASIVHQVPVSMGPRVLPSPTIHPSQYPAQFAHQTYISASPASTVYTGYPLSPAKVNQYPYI
# Source text: as §1
# MST2 = target: T2, MST2 (Homo sapiens, UniProt Q13188); experiment: Kinase profiling MST2; settings: for remaining activity at 100 µM: read-out: residual kinase activity, MST2
# T2 sequence (Q13188 1-491): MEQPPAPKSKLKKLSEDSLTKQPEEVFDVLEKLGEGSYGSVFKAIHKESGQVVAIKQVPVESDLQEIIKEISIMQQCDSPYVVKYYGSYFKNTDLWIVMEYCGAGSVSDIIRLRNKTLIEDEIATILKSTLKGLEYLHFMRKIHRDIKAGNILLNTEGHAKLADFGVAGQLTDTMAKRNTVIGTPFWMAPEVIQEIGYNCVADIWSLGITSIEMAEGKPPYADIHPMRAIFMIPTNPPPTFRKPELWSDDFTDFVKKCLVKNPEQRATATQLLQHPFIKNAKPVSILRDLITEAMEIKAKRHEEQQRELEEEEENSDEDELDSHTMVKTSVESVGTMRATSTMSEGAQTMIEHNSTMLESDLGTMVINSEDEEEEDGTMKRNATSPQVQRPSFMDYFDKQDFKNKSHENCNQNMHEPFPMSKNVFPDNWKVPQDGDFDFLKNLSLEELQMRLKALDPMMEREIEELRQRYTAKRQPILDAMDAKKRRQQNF
# Source text: as §1
# TAK1 = target: T3, TAK1 (Homo sapiens, UniProt O43318); experiment: Kinase profiling TAK1; settings: for remaining activity at 100 µM: read-out: residual kinase activity, TAK1
# T3 sequence (O43318 1-303 limits assumed): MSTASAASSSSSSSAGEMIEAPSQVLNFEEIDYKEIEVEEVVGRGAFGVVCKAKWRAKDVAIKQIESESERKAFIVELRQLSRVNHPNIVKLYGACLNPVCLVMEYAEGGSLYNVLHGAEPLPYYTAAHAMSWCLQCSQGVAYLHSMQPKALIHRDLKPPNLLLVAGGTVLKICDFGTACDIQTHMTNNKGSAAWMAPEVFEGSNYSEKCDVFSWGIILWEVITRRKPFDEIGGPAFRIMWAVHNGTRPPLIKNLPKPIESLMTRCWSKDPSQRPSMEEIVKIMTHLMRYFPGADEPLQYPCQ
# T3 sequence (Q15750 437-504 partner limits assumed): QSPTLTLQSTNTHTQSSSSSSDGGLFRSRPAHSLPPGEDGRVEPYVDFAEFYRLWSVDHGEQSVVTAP
# Source text: as §1
# PLK1 = PLK1 (Homo sapiens, UniProt P53350); experiment: Kinase profiling PLK1; settings: for remaining activity at 100 µM: read-out: residual kinase activity, PLK1
# Source text: as §1
# CHK2 = CHK2 (Homo sapiens, UniProt O96017); experiment: Kinase profiling CHK2; settings: for remaining activity at 100 µM: read-out: residual kinase activity, CHK2
# Source text: as §1
# EPH-A2 = EPH-A2 (Homo sapiens, UniProt P29317); experiment: Kinase profiling EPH-A2; settings: for remaining activity at 100 µM: read-out: residual kinase activity, EPH-A2
# EPH-A2, sequence (P29317 24-976, species assumed): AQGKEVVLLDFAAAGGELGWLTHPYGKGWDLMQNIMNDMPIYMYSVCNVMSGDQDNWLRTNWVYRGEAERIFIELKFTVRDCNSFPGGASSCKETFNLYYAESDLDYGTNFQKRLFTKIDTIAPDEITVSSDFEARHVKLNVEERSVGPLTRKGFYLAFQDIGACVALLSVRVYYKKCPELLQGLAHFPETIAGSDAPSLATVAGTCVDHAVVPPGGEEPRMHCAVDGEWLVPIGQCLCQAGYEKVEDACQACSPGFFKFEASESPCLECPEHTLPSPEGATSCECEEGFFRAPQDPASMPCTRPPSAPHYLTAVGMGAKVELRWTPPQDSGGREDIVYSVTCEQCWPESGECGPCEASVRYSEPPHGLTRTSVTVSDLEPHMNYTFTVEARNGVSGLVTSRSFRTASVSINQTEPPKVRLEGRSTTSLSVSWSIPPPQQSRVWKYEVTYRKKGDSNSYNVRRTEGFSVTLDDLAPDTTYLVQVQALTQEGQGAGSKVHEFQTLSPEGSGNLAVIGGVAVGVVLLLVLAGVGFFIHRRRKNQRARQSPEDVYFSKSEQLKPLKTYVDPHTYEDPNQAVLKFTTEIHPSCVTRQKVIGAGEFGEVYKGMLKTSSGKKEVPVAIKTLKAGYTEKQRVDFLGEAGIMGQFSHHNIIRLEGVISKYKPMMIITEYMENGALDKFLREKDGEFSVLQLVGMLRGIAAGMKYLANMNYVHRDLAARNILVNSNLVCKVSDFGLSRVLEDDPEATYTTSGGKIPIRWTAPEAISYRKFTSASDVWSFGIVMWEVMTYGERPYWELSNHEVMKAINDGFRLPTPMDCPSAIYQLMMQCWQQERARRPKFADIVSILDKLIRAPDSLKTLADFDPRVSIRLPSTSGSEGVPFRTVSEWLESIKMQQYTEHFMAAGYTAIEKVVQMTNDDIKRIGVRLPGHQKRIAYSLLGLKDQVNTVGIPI
# Source text: as §1
# MARK3 = MARK3 (Homo sapiens, UniProt P27448); experiment: Kinase profiling MARK3; settings: for remaining activity at 100 µM: read-out: residual kinase activity, MARK3
# MARK3, sequence (P27448 whole entry, species assumed): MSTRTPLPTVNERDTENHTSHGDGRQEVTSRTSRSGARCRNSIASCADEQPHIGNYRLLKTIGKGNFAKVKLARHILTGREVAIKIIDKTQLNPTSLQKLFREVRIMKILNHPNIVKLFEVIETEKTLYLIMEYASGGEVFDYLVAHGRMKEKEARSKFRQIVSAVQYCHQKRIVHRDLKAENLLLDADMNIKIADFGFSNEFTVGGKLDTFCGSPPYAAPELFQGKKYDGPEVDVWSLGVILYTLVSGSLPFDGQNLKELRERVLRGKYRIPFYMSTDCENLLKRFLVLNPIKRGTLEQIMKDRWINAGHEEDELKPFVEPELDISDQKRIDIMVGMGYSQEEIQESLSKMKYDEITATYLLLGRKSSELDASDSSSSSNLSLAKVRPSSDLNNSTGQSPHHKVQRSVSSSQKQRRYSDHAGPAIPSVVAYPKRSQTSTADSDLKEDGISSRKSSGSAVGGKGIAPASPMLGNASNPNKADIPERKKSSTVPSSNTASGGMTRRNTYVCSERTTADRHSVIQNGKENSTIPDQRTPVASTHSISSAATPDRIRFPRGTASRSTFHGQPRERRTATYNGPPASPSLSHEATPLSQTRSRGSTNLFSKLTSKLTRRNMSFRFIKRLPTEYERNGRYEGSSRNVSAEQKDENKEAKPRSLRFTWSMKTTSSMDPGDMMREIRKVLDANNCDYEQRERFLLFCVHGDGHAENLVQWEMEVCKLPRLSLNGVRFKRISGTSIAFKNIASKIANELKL
# Source text: as §1
# DYRK1A = DYRK1A (Homo sapiens, UniProt Q13627); experiment: DYRK 1A assay (kinase profiling); settings: for remaining activity at 100 µM: read-out: residual kinase activity, DYRK1A
# Method: Assays are stopped by addition of 5 μl of 0.5 M (3%) orthophosphoric acid and then harvested onto P81 Unifilter plates with a wash buffer of 50 mM orthophosphoric acid.
# as §1
# [1] = 100 micromolar inhibitor concentration, 100 is no change
# [2] = 100 micromolar inhibitor, 100 = no change
# PRK2, sequence (Q16513 whole entry, species assumed): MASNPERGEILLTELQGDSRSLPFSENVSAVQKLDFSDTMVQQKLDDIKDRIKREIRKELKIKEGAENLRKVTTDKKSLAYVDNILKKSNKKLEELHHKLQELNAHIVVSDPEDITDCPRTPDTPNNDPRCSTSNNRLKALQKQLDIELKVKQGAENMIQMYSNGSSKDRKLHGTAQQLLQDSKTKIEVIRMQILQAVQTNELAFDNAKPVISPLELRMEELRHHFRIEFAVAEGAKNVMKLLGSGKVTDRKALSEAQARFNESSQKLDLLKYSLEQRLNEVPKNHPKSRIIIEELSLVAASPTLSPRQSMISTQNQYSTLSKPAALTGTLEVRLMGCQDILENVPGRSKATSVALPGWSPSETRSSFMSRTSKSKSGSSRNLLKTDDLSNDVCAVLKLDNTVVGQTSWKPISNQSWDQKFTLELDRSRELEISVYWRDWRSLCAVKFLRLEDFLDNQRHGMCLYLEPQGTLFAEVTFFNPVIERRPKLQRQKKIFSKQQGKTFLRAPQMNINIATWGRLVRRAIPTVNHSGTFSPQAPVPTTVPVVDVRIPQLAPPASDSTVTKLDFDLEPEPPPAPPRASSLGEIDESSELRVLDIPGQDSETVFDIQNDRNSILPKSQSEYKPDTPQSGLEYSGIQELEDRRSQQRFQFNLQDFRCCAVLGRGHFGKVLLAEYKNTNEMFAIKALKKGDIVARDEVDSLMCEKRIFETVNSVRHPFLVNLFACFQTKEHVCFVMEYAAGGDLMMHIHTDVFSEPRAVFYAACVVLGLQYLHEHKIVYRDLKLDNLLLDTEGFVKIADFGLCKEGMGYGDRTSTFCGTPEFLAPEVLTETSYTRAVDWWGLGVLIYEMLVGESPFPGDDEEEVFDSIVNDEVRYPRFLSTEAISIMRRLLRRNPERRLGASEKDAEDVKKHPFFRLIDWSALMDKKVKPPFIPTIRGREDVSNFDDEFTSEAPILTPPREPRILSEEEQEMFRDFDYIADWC
SMILES,"residual kinase activity, PRK2 (PRK2; [1])","residual kinase activity, VEG-FR (VEG-FR; [1])","residual kinase activity, SmMLCK (SmMLCK; [1])","residual kinase activity, IRAK4 (IRAK4; [1])","residual kinase activity, RIPK2 (RIPK2; [1])","residual kinase activity, HIPK2 (HIPK2; [1])","residual kinase activity, MST2 (MST2; [1])","residual kinase activity, TAK1 (TAK1; [1])","residual kinase activity, PLK1 (PLK1; [1])","residual kinase activity, CHK2 (CHK2; [1])","residual kinase activity, EPH-A2 (EPH-A2; [1])","residual kinase activity, MARK3 (MARK3; [1])","residual kinase activity, DYRK1A (DYRK1A; [1])",further results
COC(=O)c1cccc(C(=O)Nc2nc3ccc(F)cc3s2)c1 [Compound 03-110],85,66,55,96,48,66,88,68,108,51,84,105,13,–
CC(=O)Nc1nc2ccc(F)cc2s1 [Compound 03-94],80,18,67,44,38,27,91,26,93,74,94,96,12,–
COc1cccc(NC(=O)Nc2nc3cc(O)ccc3s2)c1 [Compound 13-62],–,–,–,–,–,–,–,–,–,–,–,–,–,"residual kinase activity, PRK2 (PRK2; [2]): 40; residual kinase activity, VEG-FR (VEG-FR; [2]): 7; residual kinase activity, SmMLCK (SmMLCK; [2]): 5; residual kinase activity, IRAK4 (IRAK4; [2]): 17; residual kinase activity, RIPK2 (RIPK2; [2]): 6; residual kinase activity, HIPK2 (HIPK2; [2]): 23; residual kinase activity, MST2 (MST2; [2]): 3; residual kinase activity, TAK1 (TAK1; [2]): 11; residual kinase activity, PLK1 (PLK1; [2]): 98; residual kinase activity, CHK2 (CHK2; [2]): 18; residual kinase activity, EPH-A2 (EPH-A2; [2]): 81; residual kinase activity, MARK3 (MARK3; [2]): 12; residual kinase activity, DYRK1A (DYRK1A; [2]): 7"
COc1ccc2sc(NC(=O)c3cccc(C(N)=O)c3)nc2c1 [Compound 03-113],98,86,83,58,99,96,119,35,105,98,96,101,51,–
"COC(=O)c1cccc(C(=O)Nc2nc3ccc(C(F)(F)F)cc3s2)c1 [Compound 03-105, Methyl 3-((6-(trifluoromethyl)benzo[d]thiazol-2-yl)carbamoyl)benzoate]",–,29,–,–,–,–,–,–,–,–,–,–,–,remaining activity at 100 µM (PRK2): 109%; remaining activity at 100 µM (SmMLCK; [1]): 63%; remaining activity at 100 µM (IRAK4): 78%; remaining activity at 100 µM (RIPK2): 79%; remaining activity at 100 µM (HIPK2): 72%; remaining activity at 100 µM (MST2): 99%; remaining activity at 100 µM (TAK1): 76%; remaining activity at 100 µM (PLK1): 101%; remaining activity at 100 µM (CHK2): 89%; remaining activity at 100 µM (EPH-A2): 100%; remaining activity at 100 µM (MARK3): 103%; remaining activity at 100 µM (DYRK1A): 2%
O=C(Nc1nc2cc(O)ccc2s1)c1ccccc1 [Compound 03-102],68,11,15,34,24,36,46,31,83,26,65,63,6,–
COc1ccc2sc(NC(=O)c3ccccc3)nc2c1 [Compound 03-95],84,65,48,57,40,74,95,45,77,98,91,106,30,–
CC(=O)Nc1nc2ccc([N+](=O)[O-])cc2s1 [Compound 13-10],–,5,–,–,–,–,–,–,–,–,–,–,–,remaining activity at 100 µM (PRK2; [1]): 93%; remaining activity at 100 µM (SmMLCK; [1]): 58%; remaining activity at 100 µM (IRAK4; [1]): 8%; remaining activity at 100 µM (RIPK2; [1]): 27%; remaining activity at 100 µM (HIPK2; [1]): 8%; remaining activity at 100 µM (MST2; [1]): 97%; remaining activity at 100 µM (TAK1; [1]): 58%; remaining activity at 100 µM (PLK1; [1]): 96%; remaining activity at 100 µM (CHK2; [1]): 59%; remaining activity at 100 µM (EPH-A2; [1]): 65%; remaining activity at 100 µM (MARK3; [1]): 85%; remaining activity at 100 µM (DYRK1A; [1]): 6%
O=C(Nc1nc2ccc(C(F)(F)F)cc2s1)c1ccccc1 [Compound 03-99],85,28,89,70,89,90,93,95,112,94,110,106,9,–
COc1ccc2nc(C(=O)Nc3ccccc3)sc2c1 [Compound 13-03],–,–,–,–,–,–,–,–,–,–,–,–,–,"residual kinase activity, PRK2 (PRK2; [2]): 105; residual kinase activity, VEG-FR (VEG-FR; [2]): 87; residual kinase activity, SmMLCK (SmMLCK; [2]): 85; residual kinase activity, IRAK4 (IRAK4; [2]): 93; residual kinase activity, RIPK2 (RIPK2; [2]): 76; residual kinase activity, HIPK2 (HIPK2; [2]): 96; residual kinase activity, MST2 (MST2; [2]): 107; residual kinase activity, TAK1 (TAK1; [2]): 96; residual kinase activity, PLK1 (PLK1; [2]): 93; residual kinase activity, CHK2 (CHK2; [2]): 92; residual kinase activity, EPH-A2 (EPH-A2; [2]): 63; residual kinase activity, MARK3 (MARK3; [2]): 92; residual kinase activity, DYRK1A (DYRK1A; [2]): 45"

# Reference: US10231954B2, “Neurodegenerative therapies” (LYTIX BIOPHARMA AS, priority 2014, dated 2019)
